Data set [1] relates to myeloid leukemia K562 cell line (doxorubicin-sensitive). Details: method as in PMID 26771595. The conditions noted are these: previous results by the group; cited from earlier work.
Data set [2] has as its system myeloid leukemia K562 cell line (doxorubicin-resistant). Further details: method as in PMID 26771595. The conditions noted are these: previous results by the group; cited from earlier work.
A further data set concerns A375-C5 (melanoma). Nature of the data set: SRB cell growth inhibition assay, A375-C5. In kind it is cell-based, human. The conditions noted are these: for GI50: Homo sapiens, A375-C5, SRB assay, continuous exposure for 48 h, mean ± SD, at least three independent experiments, read-out: Antitumor Activity (GI50) A375-C5; for Selectivity Index A375-C5: ratio of GI50 in non-tumor HPAEpiC cells over GI50 in A375-C5. How it is done:
(§1) To evaluate the biological activity of compounds 11–14, three human tumor cell lines (European Collection of Cell Culture, Salisbury, Wiltshire, UK) were used: A375-C5 (melanoma), MCF-7 (breast adenocarcinoma) and NCI-H460 (non-small cell lung cancer). Cells were grown in RPMI-1640 culture medium (Biochrom, Berlin, Germany) supplemented with 5% heat-inactivated fetal bovine serum (FBS, Biochrom) and maintained in a humidified incubator at 37 °C with 5% CO2 (Hera Cell, Heraeus).
(§2) The antitumor activity of compounds was accessed through the determination of the GI50 by the sulforhodamine B assay (SRB, Sigma-Aldrich). Tumor cells were seeded in 96-well plates (0.05 × 10^6 cells/well) in complete culture medium and incubated at 37 °C for 24 h, allowing cell attachment. Cells were then incubated with two-fold serial dilutions of the test compounds, with concentrations ranging from 0 to 75 μM. Dimethyl sulfoxide-treated cells (DMSO), up to 0.25% concentration, were included as compounds solvent control. Forty-eight hours later, cells were fixed with 50% (m/v) trichloroacetic acid (Merck Millipore, Darmstadt, Germany), washed with distilled water and stained with SRB for 30 min at room temperature. The SRB-stained cells were washed 5 times with 1% (v/v) acetic acid (Merck Millipore) and afterwards dried at RT; SRB complexes were solubilized by adding 10 mM Tris-Base buffer (Sigma-Aldrich) for 30 min. Absorbance was measured at 515 nm in a microplate reader (BioTek Synergy 2, BioTek Instruments Inc., Winooski, VT, USA).The concentration that caused cell growth inhibition of 50% (GI50) was determined based on a dose–response curve obtained for each cell line with each test compound.

For data set [3], the system named is MCF-7 (breast adenocarcinoma). Nature of the data set: SRB cell growth inhibition assay, MCF-7. In kind it is cell-based, human. The conditions noted are these: for GI50: Homo sapiens, MCF7, SRB assay, continuous exposure for 48 h, mean ± SD, at least three independent experiments, read-out: Antitumor Activity (GI50) MCF-7; for Selectivity Index MCF-7: ratio of GI50 in non-tumor HPAEpiC cells over GI50 in MCF-7. As to the method:
as §1, §2

For data set [4], the system named is NCI-H460 (non-small cell lung cancer). Nature of the data set: SRB cell growth inhibition assay, NCI-H460. In kind it is cell-based, human. The conditions noted are these: for GI50: Homo sapiens, NCI-H460, SRB assay, continuous exposure for 48 h, mean ± SD, at least three independent experiments, read-out: Antitumor Activity (GI50) NCI-H460; for Selectivity Index NCI-H460: ratio of GI50 in non-tumor HPAEpiC cells over GI50 in NCI-H460. How it is done:
as §1, §2

Data set [5] concerns Human Pulmonary Alveolar Epithelial Cells (HPAEpiC). Nature of the data set: Cell toxicity in non-tumor cells (GI50). The class given is cell-based. The conditions noted are these: mean ± SD of three independent experiments. As to the method: as §2
The non-tumor Human Pulmonary Alveolar Epithelial Cells (HPAEpiC) were used to assess the degree of selectivity of the compounds, as the ratio of GI50 in non-tumor cells over GI50 in cancer cells. A selectivity index value less than 2.0 indicates the general toxicity of the compound [32].

In data set [6] the test system is A375-C5, MCF-7 and NCI-H460. Nature of the data set: SRB cell growth inhibition, span over the three tumor cell lines. In kind it is cell-based. The conditions noted are these: Homo sapiens; A375-C5, MCF-7 and NCI-H460 taken together; read-out: GI50, range over the tested cell lines. As to the method: as §1
The antitumor activity of compounds was accessed through the determination of the GI50 by the sulforhodamine B assay (SRB, Sigma-Aldrich). Tumor cells were seeded in 96-well plates (0.05 × 10^6 cells/well) in complete culture medium and incubated at 37 °C for 24 h, allowing cell attachment. Cells were then incubated with two-fold serial dilutions of the test compounds, with concentrations ranging from 0 to 75 μM. Dimethyl sulfoxide-treated cells (DMSO), up to 0.25% concentration, were included as compounds solvent control. Forty-eight hours later, cells were fixed with 50% (m/v) trichloroacetic acid (Merck Millipore, Darmstadt, Germany), washed with distilled water and stained with SRB for 30 min at room temperature. […]

A short description of data set [7]: Photophysical studies (absorption and emission in DMSO). The class given is physicochemical. The conditions noted are these: for λmax: absorption; for λem: emission; for ΦF: fluorescence quantum yield, by comparison with fluorescein (φf = 90%); for log ε: molar absorption coefficient. As to the method: The absorption spectra in dimethyl sulfoxide solutions were obtained on a Shimadzu UV-2501 PC spectrophotometer (1 cm path length quartz cell) and the emission spectra were recorded on a JASCO spectrofluorometer. Molar absorption coefficients were determined using 4 measurements in the concentration range 10^−3–10^−6 mol.L^−1. Fluorescence quantum yields were determined by comparison with fluorescein in 0.1 M NaOH water solution as a fluorescence standard (φf = 90%).

In the case of `CCCOc1ccc(NCCN(CC)CC)c2c(=O)c3ccccc3sc12` [Compound 4], the GI50 in data set [1] and in data set [2] was 1.9 µM in each case.

Turning to `CCCOc1ccc2nc(N)nc3c2c1Sc1ccccc1-3` [Compound 11, 6-Propoxythiochromeno[4,3,2-de]quinazolin-2-amine], in the data set with A375-C5 (melanoma), the 50% growth inhibitory concentration (GI50) is 6.48 ± 0.88 µM and the “Selectivity Index A375-C5” value was 4.13. In data set [3], the 50% growth inhibitory concentration (GI50) came out at 6.39 ± 0.49 µM and the “Selectivity Index MCF-7” value was 4.19. In data set [4], the GI50 stood at 5.66 ± 0.89 µM and the “Selectivity Index NCI-H460” value is 4.73. Also, the GI50 in data set [5] was found to be 26.8 ± 1.2 µM. In data set [6], the GI50 fell in the range of 5 to 7 µM. In data set [7], the “Stokes’ Shift” value is reported as 92 nm, the λmax came out at 456 nm, the λem is given as 548 nm and the ΦF is 29.0%. Moreover, the “log ε” value in data set [7] worked out at 3.67.

Take `CCCOc1ccc2ncnc3c2c1Sc1ccccc1-3` [Compound 12, 6-Propoxythiochromeno[4,3,2-de]quinazoline]: in the data set on A375-C5 (melanoma), the GI50 turned out to be 38.8 ± 5.93 µM and the “Selectivity Index A375-C5” value turned out to be 1.01. For the same compound, in data set [3], the GI50 worked out at 33.8 ± 1.61 µM and the “Selectivity Index MCF-7” value was 1.16. Moreover, in data set [4], the GI50 was 31.2 ± 1.53 µM and the “Selectivity Index NCI-H460” value is 1.26. Further, the GI50 in data set [5] turned out to be 39.28 ± 0.25 µM. In data set [7], the “Stokes’ Shift” value was found to be 89 nm, the λmax is 394 nm, the λem is listed as 483 nm and the ΦF is on record as 50.7%. Also, the “log ε” value in data set [7] turned out to be 3.72.

For `CCCOc1ccc2nc(NCc3ccccc3Cl)nc3c2c1Sc1ccccc1-3` [Compound 13, N-(2-Chlorobenzyl)-6-propoxythiochromeno[4,3,2-de]quinazolin-2-amine], in the data set on A375-C5 (melanoma), the GI50 was 22.9 ± 3.75 µM and the “Selectivity Index A375-C5” value is recorded as 5.59. In data set [3], the GI50 turned out to be 18.9 ± 1.42 µM and the “Selectivity Index MCF-7” value was 6.79. In addition, in data set [4], the GI50 amounted to 17 ± 3.12 µM and the “Selectivity Index NCI-H460” value came out at 7.54. In addition, in data set [5], the 50% growth inhibitory concentration (GI50) was 128 ± 1.56 µM. For the same compound, in data set [7], the “Stokes’ Shift” value came to 91 nm, the λmax is given as 457 nm, the λem is reported as 548 nm and the ΦF was 31.3%. Moreover, the “log ε” value in data set [7] is reported as 3.72.

On to `CCCOc1ccc2c3c(n/c(=N/c4ccccc4C)n2-c2ccccc2C)-c2ccccc2Sc13` [Compound 14, (E)-6-Propoxy-N,3-di-o-tolylthiochromeno[4,3,2-de]quinazolin-2(3H)-imine], for which the GI50 in the data set with A375-C5 (melanoma) was 8.02 ± 3.59 µM; in data set [3] it was 9.04 ± 0.89 µM; in data set [4] it was 10.6 ± 0.31 µM; in data set [5], over 150 µM; in data set [6] it was 8 to 11 µM. The “Stokes’ Shift” value in data set [7] is 80 nm. This compound registered a λmax in data set [7] of 480 nm. The λem in data set [7] came to 560 nm. Moreover, in data set [7], the ΦF is under 0.1%. Besides, the “log ε” value in data set [7] is recorded as 4.00.

For the compound `COc1cccc2c1C(=O)c1c(O)c3c(c(O)c1C2=O)C[C@@](O)(C(=O)CO)C[C@@H]3O[C@H]1C[C@H](N)[C@H](O)[C@H](C)O1` [Doxorubicin, reference compound], in the data set on A375-C5 (melanoma), the GI50 is 0.016 ± 0.005 µM and the “Selectivity Index A375-C5” value is 3.38. Further, in data set [3], the GI50 amounted to 0.018 ± 0.003 µM and the “Selectivity Index MCF-7” value was 3.00. In addition, in data set [4], the GI50 was 0.024 ± 0.006 µM and the “Selectivity Index NCI-H460” value is on record as 2.25. Moreover, in data set [5], the GI50 is 0.054 ± 0.005 µM.
